From patent US8637496B2, “Compounds having a monogalactosyldiacylglycerol synthase inhibitory activity as herbicide or algaecide, herbicide and algaecide compositions” (Commissariat a l'Energie Atomique, priority 2007, dated 2014)
Structures can show the parent of a compound that is named as a salt.

Target: T1, MGDG synthase in isolated spinach chloroplast envelope membranes (Spinacia oleracea, UniProt Q9SM44)
T1 construct: envelope membranes purified from the lysate by sucrose centrifugation gradient; from tissue; host or cells: envelope membranes of chloroplasts from spinach leaves
T1 sequence (Q9SM44 99-522): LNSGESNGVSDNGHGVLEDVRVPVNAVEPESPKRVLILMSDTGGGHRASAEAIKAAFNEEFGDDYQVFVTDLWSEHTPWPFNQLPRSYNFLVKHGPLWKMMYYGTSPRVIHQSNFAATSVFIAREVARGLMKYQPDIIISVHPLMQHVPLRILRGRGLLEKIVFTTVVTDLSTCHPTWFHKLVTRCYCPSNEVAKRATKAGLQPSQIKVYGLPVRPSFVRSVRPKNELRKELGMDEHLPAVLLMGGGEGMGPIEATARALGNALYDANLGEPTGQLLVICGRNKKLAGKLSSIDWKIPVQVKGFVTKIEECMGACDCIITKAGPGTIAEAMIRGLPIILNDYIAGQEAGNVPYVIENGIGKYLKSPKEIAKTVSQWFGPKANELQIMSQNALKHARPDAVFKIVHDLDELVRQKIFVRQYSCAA
Experiment: MGDG synthase activity in envelope membrane fractions isolated from spinach chloroplasts
Assay type: biochemical
Details: not given
Source text: All the operations have been carried out as described in the article by Maréchal, E. et al., J. Biol. Chem., 1995, 270, 5714-5722. Crude chloroplasts were obtained from 3-4 kg of spinach leaves and purified by isopycnic centrifugation using Percoll gradients. Purified intact chloroplasts have then been lysed in hypotonic medium and envelope membranes purified from the lysate by sucrose centrifugation gradient as described in the article by Douce, R. and Joyard, J., (1982) in Methods in Chloroplast Molecular Biology (Edelman, M., Hallick R and Chua N H eds), pp 239-256, Elsevier Science Publishers B.V. Amsterdam.
MGDG synthase activity was assayed as described in the article by Maréchal et al. (1995).

Structure (SMILES)	IC50
C[C@@H](COC(=O)N1CCC(n2c(=O)[nH]c3ccccc32)CC1)N(Cc1ccccc1)Cc1cc2ccccc2c2ccccc12 [Compound 61, (S)-2-(benzyl(phenanthren-9-ylmethyl)amino)propyl 4-(2-oxo-2,3-dihydro-1H-benzo[d]imidazol-1-yl)piperidine-1-carboxylate hydrochloride]	25 µM

Same assay, conditions: Table 1, obtained in the same manner as FIG. 4; read-out: Inhibitory effect on MGDG synthesis in isolated spinach chloroplast envelope membranes

Structure (SMILES)	IC50
CC(COC(=O)N1CCC(n2c(=O)[nH]c3ccccc32)CC1)N(CCCOCc1ccccc1)Cc1ccccc1 (centres unmarked) [Compound 89, 2-(benzyl(3-(benzyloxy)propyl)amino)propyl 4-(2-oxo-2,3-dihydro-1H-benzo[d]imidazol-1-yl)piperidine-1-carboxylate]	40 µM
O=C(OCCN(CCCc1ccccc1)Cc1ccccc1)N1CCC(n2c(=O)[nH]c3ccccc32)CC1 [Compound 46, 2-(benzyl(3-phenylpropyl)amino)ethyl 4-(2-oxo-2,3-dihydro-1H-benzo[d]imidazol-1-yl)piperidine-1-carboxylate hydrochloride]	15 µM
O=C(OCCN(C/C=C/c1ccccc1)Cc1ccccc1)N1CCC(n2c(=O)[nH]c3ccccc32)CC1 [Compound 82, (E)-2-(benzyl(cinnamyl)amino)ethyl 4-(2-oxo-2,3-dihydro-1H-benzo[d]imidazol-1-yl)piperidine-1-carboxylate]	50 µM
C[C@@H](COC(=O)N1CCC(n2c(=O)[nH]c3ccccc32)CC1)N(CCCc1ccccc1)Cc1ccccc1 [Compound 52, (S)-2-(benzyl(3-phenylpropyl)amino)propyl 4-(2-oxo-2,3-dihydro-1H-benzo[d]imidazol-1-yl)piperidine-1-carboxylate hydrochloride]	60 µM
O=C(OCCN(Cc1ccccc1)c1ccccc1)N1CCC(n2c(=O)[nH]c3ccccc32)CC1 [Compound 35, 2-(N-benzyl-N-phenylamino)ethyl 4-(1,2-dihydro-2-oxobenzo[d]imidazol-3-yl)piperidine-1-carboxylate]	40 µM
CC(C)(COC(=O)N1CCC(n2c(=O)[nH]c3ccccc32)CC1)N(Cc1ccccc1)Cc1ccccc1 [Compound 33, 2-(dibenzylamino)-2-methylpropyl 4-(1,2-dihydro-2-oxobenzo[d]imidazol-3-yl)piperidine-1-carboxylate]	50 µM
O=C(OCCN(Cc1ccccc1)Cc1ccc([N+](=O)[O-])cc1)N1CCC(n2c(=O)[nH]c3ccccc32)CC1 [Compound 28, 2-(N-(4-nitrobenzyl)-N-benzylamino)ethyl 4-(1,2-dihydro-2-oxobenzo[d]imidazol-3-yl)piperidine-1-carboxylate]	20 µM
O=C(OCCN(Cc1ccccc1)Cc1ccc(OCc2ccccc2)cc1)N1CCC(n2c(=O)[nH]c3ccccc32)CC1 [Compound 77, 2-(benzyl(4-(benzyloxy)benzyl)amino)ethyl 4-(2-oxo-2,3-dihydro-1H-benzo[d]imidazol-1-yl)piperidine-1-carboxylate]	30 µM
O=C(OC[C@@H](Cc1ccccc1)N(Cc1ccccc1)Cc1ccccc1)N1CCC(n2c(=O)[nH]c3ccccc32)CC1 [Compound 43, (R)-2-(dibenzylamino)-3-phenylpropyl 4-(1,2-dihydro-2-oxobenzo[d]imidazol-3-yl)piperidine-1-carboxylate]	6 µM
C[C@@H](COC(=O)N1CCC(n2c(=O)[nH]c3ccccc32)CC1)N(Cc1ccccc1)Cc1cccc(Cl)c1 [Compound 56, (S)-2-(benzyl(3-chlorobenzyl)amino)propyl 4-(2-oxo-2,3-dihydro-1H-benzo[d]imidazol-1-yl)piperidine-1-carboxylate hydrochloride]	15 µM
COc1cccc(CN(CCCOC(=O)N2CCC(n3c(=O)[nH]c4ccccc43)CC2)Cc2ccccc2)c1 [Compound 68, 3-(benzyl(3-methoxybenzyl)amino)propyl 4-(2-oxo-2,3-dihydro-1H-benzo[d]imidazol-1-yl)piperidine-1-carboxylate hydrochloride]	80 µM
CC(CCOC(=O)N1CCC(n2c(=O)[nH]c3ccccc32)CC1)N(Cc1ccccc1)Cc1ccccc1 (centres unmarked) [Compound 32, 3-(dibenzylamino)butyl 4-(1,2-dihydro-2-oxobenzo[d]imidazol-3-yl)piperidine-1-carboxylate]	35 µM
CC(C)(C)OC(=O)N(Cc1ccccc1)[C@H](COC(=O)N1CCC(n2c(=O)[nH]c3ccccc32)CC1)Cc1ccccc1 [Compound 86, (S)-2-(benzyl(tert-butoxycarbonyl)amino)-3-phenylpropyl 4-(2-oxo-2,3-dihydro-1H-benzo[d]imidazol-1-yl)piperidine-1-carboxylate]	5 µM
C[C@@H](COC(=O)N1CCC(n2c(=O)[nH]c3ccccc32)C1)N(Cc1ccccc1)Cc1ccccc1 (stereo partly drawn) [Compound 6, (S)-2-(dibenzylamino)propyl 3-(1,2-dihydro-2-oxobenzo[d]imidazol-3-yl)pyrrolidine-1-carboxylate]	50 µM
O=C(OCCCN(Cc1ccccc1)Cc1ccccc1)N1CCC(n2c(=O)[nH]c3ccccc32)CC1 [Compound 10, 3-(dibenzylamino)propyl 4-(1,2-dihydro-2-oxobenzo[d]imidazol-3-yl)piperidine-1-carboxylate]	45 µM
C[C@@H](COC(=O)N1CCC(n2c(=O)[nH]c3ccccc32)CC1)N(Cc1ccccc1)Cc1cccs1 [Compound 63, (S)-2-(benzyl(thiophen-2-ylmethyl)amino)propyl 4-(2-oxo-2,3-dihydro-1H-benzo[d]imidazol-1-yl)piperidine-1-carboxylate hydrochloride]	30 µM
C[C@@H](COC(=O)N1CCC(n2cnc3ccccc32)CC1)N(Cc1ccccc1)Cc1ccccc1 [Compound 1, (S)-2-(dibenzylamino)propyl 4-(1H-benzo[d]imidazol-1-yl)piperidine-1-carboxylate]	100 to 500 µM
O=C(OCCCN(Cc1ccccc1)Cc1cccnc1)N1CCC(n2c(=O)[nH]c3ccccc32)CC1 [Compound 58, 3-(benzyl(pyridin-3-ylmethyl)amino)propyl 4-(2-oxo-2,3-dihydro-1H-benzo[d]imidazol-1-yl)piperidine-1-carboxylate hydrochloride]	17 µM
C[C@@H](COC(=O)N1CCC(n2c(=O)[nH]c3ccccc32)CC1)N(Cc1ccccc1)Cc1ccc([N+](=O)[O-])cc1 [Compound 36, (S)-2-(benzyl(4-nitrobenzyl)amino)propyl 4-(2-oxo-2,3-dihydro-1H-benzo[d]imidazol-1-yl)piperidine-1-carboxylate hydrochloride]	50 µM
C[C@@H](COC(=O)N1CCC(n2c(=S)[nH]c3ccccc32)CC1)N(Cc1ccccc1)Cc1ccccc1 [Compound 25, (S)-2-(dibenzylamino)propyl 4-(1,2-dihydro-2-thioxobenzo[d]imidazol-3-yl)piperidine-1-carboxylate]	100 to 500 µM
C[C@@H](COC(=O)N1CCCC(n2c(=O)[nH]c3ccccc32)CC1)N(Cc1ccccc1)Cc1ccccc1 (stereo partly drawn) [Compound 4, (S)-2-(dibenzylamino)propyl 4-(1,2-dihydro-2-oxobenzo[d]imidazol-3-yl)azepane-1-carboxylate]	200 µM
O=C(OCCN(Cc1ccccc1)Cc1ccncc1)N1CCC(n2c(=O)[nH]c3ccccc32)CC1 [Compound 44, 2-(benzyl(pyridin-4-ylmethyl)amino)ethyl 4-(2-oxo-2,3-dihydro-1H-benzo[d]imidazol-1-yl)piperidine-1-carboxylate]	45 µM
